{
  "source": "paper PMC4492822",
  "about": "(EMBO Molecular Medicine, 2015)",
  "key": {"[1]": {"test_system": "Twist1/Kras^G12D lung tumors", "experiment": "Twist1/KrasG12D autochthonous lung tumor model, hypofractionated radiation (SABR)", "type": "in vivo, mouse", "procedure": "Inducible Twist1/Kras^G12D transgenic mice in the FVB/N inbred background were of the genotype: CCSP-rtTA/tetO-KrasG12D/Twist1-tetO-luc (Tran et al, [2012]). All the mice were weaned 3–4 weeks of age and then placed on dox at 4–6 weeks of age. Mice were treated with similar levels of tumor burden per micro-CT and were typically 20–30 weeks old. Mice were treated as in Fig6C and H. Each group consisted of mice, of which multiple index tumors were followed in time by micro-CT and quantified by a board-certified radiation oncologist (JZ) in a blinded fashion. Bi-dimensional measurements were made on tumors using serial examinations and tumor volumes calculated using the equation Volume = π/6 × 1.65 (length × width) × 3/2. Volumes were normalized to the starting volume, t = 0 before treatment. For 15-Gy SABR experiments, the breakdown of animal usage is (1) RT = 3 female mice, (2) RK-33 = 3 females and 1 male mice, (3) carboplatin = 3 male mice, (4) RT + carboplatin = 3 female mice, and (5) RT + RK-33 = 5 female mice. For the 3-Gy XRT experiments, animals used were (1) RT = 3 female and three male mice and (2) RT + RK-33 = four female and three male mice.\n(§1) Cells were irradiated at room temperature with 0.5 Gy/min to the desired dose using a Gammacell 40 ^137Cs irradiator. For in vivo experiments, mice were treated using the Small Animal Radiation Research Platform (Wong et al, [2008]). The tumors were irradiated with a circular beam of 1 cm diameter.\nThe mice underwent micro-CT imaging by use of the Small Animal Radiation Research Platform (SARRP) irradiator described earlier (Wong et al, [2008]). The uncollimated primary beam was used for imaging. A total of 1,800 projections were acquired at approximately 0.2 angular increments. The Feldkamp CBCT algorithm was used for reconstruction. Tumor volumes were quantified from the CT dataset with Pinnacle3 software v.8.1y (Philips Inc, Madison, WI) as described previously (Tran et al, [2011]; Zeng et al, [2013]). Briefly, we viewed 2D images in sagittal, coronal, and transverse views to detect tumors and track them over time. […]"}, "A549 cells": {"test_system": "A549 cells", "experiment": "Colony-forming assay with γ-radiation", "type": "cell-based, human", "settings": "1 μM and 2 μM, added 4 h before radiation", "procedure": "as §1\nCells were counted, plated, and allowed to attach overnight. RK-33 at specified doses was added 4 h before radiation was delivered. Colonies were stained and counted approximately 10 days after irradiation. Surviving fraction was calculated by dividing the number of colonies formed by the number of cells plated times the plating efficiency. Curves were fitted with a quadratic polynomial equation. P-values were determined by the extra sum of square F-test."}, "H1299 cells": {"test_system": "H1299 cells", "experiment": "Immunoblotting of cell cycle, apoptosis, MAPK and DNA repair proteins", "type": "cell-based", "procedure": "Cell lysate was prepared with TB buffer method. For immunoblotting, ~25 μg protein was loaded on 10% SDS–PAGE gels. […] The blots were developed with clarity Western ECL (Bio-Rad, Hercules, CA, USA) and imaged with G:BOX Chemi XR5 (Syngene, Frederick, MD, USA)."}},
  "data": [
    {"substance": "diimidazo[4,5-d:4′,5′-f]-[1,3]diazepine [RK-33]", "values": [
      {"measurement": "Ki67 positive cells in lung tumors", "setting": "[1]; RK-33 and radiation treatment", "value": "decrease in Ki67 positive cells"},
      {"measurement": "enhancement of the radiation effect (tumor volume by micro-CT)", "setting": "[1]; i.p. RK-33 with 15-Gy SABR, 1 week after treatment", "value": 3.7, "unit": "fold"},
      {"measurement": "radiation sensitization relative to that caused by carboplatin", "setting": "[1]; with SABR", "value": 1.5, "unit": "fold"},
      {"measurement": "sensitization to γ-radiation", "setting": "A549 cells", "value": "sensitized A549 cells to γ-radiation"},
      {"measurement": "DNA repair proteins ATR and XRCC4", "setting": "H1299 cells; 6 μM for 4 h, then 5 Gy", "value": "decrease of ATR but not XRCC4"},
      {"measurement": "phosphorylated ERK2 and ERK1", "setting": "H1299 cells; 7.5 μM or 10 μM, 24 h", "value": "reduction of phosphorylated ERK2 and ERK1"},
      {"measurement": "cyclin D1 protein", "setting": "H1299 cells; 10 μM, especially evident 2 h after treatment", "value": "substantial reduction of cyclin D1"}
    ]}
  ]
}
